Where a chain is given by its changes, count along the chain named.
Key:
[1] = biological target: T1, 5-HT3A receptor I71A mutant (Homo sapiens, UniProt P46098, I66A); assay: two-electrode voltage clamp, I71A mutant receptor in Xenopus oocytes; format: cell-based; conditions: 100 µM chanoclavine, read-out: Inhibition Percentage (%)
T1 construct: host or cells: Xenopus laevis oocytes injected with in vitro transcribed mRNA
T1 sequence (P46098 24-478 I66A): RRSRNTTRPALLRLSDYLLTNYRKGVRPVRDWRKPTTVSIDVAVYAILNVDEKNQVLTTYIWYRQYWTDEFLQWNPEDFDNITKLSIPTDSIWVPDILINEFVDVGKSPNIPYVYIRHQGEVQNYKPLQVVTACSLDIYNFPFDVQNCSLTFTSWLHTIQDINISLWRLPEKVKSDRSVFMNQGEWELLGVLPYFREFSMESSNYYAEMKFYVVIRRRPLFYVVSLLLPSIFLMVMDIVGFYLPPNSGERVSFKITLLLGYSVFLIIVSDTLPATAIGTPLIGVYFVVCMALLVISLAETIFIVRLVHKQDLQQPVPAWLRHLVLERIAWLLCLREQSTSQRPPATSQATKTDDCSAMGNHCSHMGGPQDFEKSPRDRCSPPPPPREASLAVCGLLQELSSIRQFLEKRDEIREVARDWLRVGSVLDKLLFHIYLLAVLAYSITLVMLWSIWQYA
Experimental: (§1) The site-directed mutation of one or two amino acids was performed using sense and antisense primers and Pfu polymerase (QuickChange Site-Directed Mutagenesis Kit; Agilent, Santa Clara, CA, USA) and amplified by polymerase chain reaction (PCR) to increase the target domain. After removing the existing methylated cDNA using Dpn Ⅰ, the PCR products were transformed into Escherichia coli strain DH5α. The cDNA of the 5-HT3A receptor was linearized by Xho Ⅰ at the end of the multi-cloning site, followed by transcription using T7 polymerase and a transcription kit (mMESSAGE mMACHINE T7 Transcription Kit; Thermo Fisher Scientific, Waltham, MA, USA). […]
(§2) To isolate oocytes, female Xenopus laevis were put into a container filled with ice and left for about one hour. […] When the Xenopus oocytes were ready for injection, 50 ng of mRNA was injected with a nanoliter injector (Drummond Scientific, Vernon Hills, IL, USA). […]
(§3) The oocytes in which mRNA was expressed during the incubation period allowed for the estimation of channel or receptor properties for observing drug and ligand potential interactions using a two-electrode voltage clamp (OC-725C; Warner Instruments, Hamden, CT, USA) and Digidata (1322A; Molecular Devices, Sunnyvale, CA, USA). […] The voltage and current electrodes were filled with 3 M KCl (0.3–0.7 MΩ) and analyzed at a −80 mV holding potential. […]

[2] = biological target: T2, 5-HT3A receptor R196A mutant (Homo sapiens, UniProt P46098, R191A); assay: two-electrode voltage clamp, R196A mutant receptor in Xenopus oocytes; format: cell-based; conditions: 100 µM chanoclavine, read-out: Inhibition Percentage (%)
T2 construct: host or cells: Xenopus laevis oocytes injected with in vitro transcribed mRNA
T2 sequence (P46098 24-478 R191A): T1 sequence (P46098 24-478 I66A) with A43I, R168A
Experimental: as §1, §2, §3

CN[C@@H]1Cc2c[nH]c3cccc(c23)[C@H]1/C=C(\C)CO [chanoclavine]
inhibition at 100 µM [1]: 62.7 ± 3.1% | inhibition at 100 µM [2]: 82.1 ± 2.5%
